≈ marks a conversion by molar mass, not a printed value. Like-named read-outs stand apart in the source and are kept apart here.
Assays:
[1] = tested on: A. baumannii; assay: microbe, parasite or virus in culture; assay type: cell-based, Acinetobacter baumannii; settings: Acinetobacter baumannii, 18 h, MHB2, 18 h, 37°C
How it was run: (§1)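 Clinical isolates in log phase were exposed to peptides in cation-adjusted MHB for 18 h at 37 °C, with growth followed hourly at A570 to give the MIC by a modified CLSI method. For MBC, bacteria were treated 3 h in 15% FBS/25% MHB/60% PBS and then plated; MBC was the concentration giving complete killing.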

[2] = tested on: E. coli; assay: microbe, parasite or virus in culture; assay type: cell-based, Escherichia coli; settings: Escherichia coli, 18 h, MHB2, 18 h, 37°C
How it was run: as §1

[3] = tested on: Enterobacter spp; assay: microbe, parasite or virus in culture; assay type: cell-based, Enterobacter spp (aerogenes, cloacae); settings: Enterobacter, 18 h, UPMC, MHB2, 18 h, 37°C
Procedure: (§2) Bacterial clinical isolates, used for initial screening and in previous studies ([Deslouches et al., 2013]; [Lin et al., 2018]), were anonymously provided by the clinical microbiology laboratory of the University of Pittsburgh medical Center. The panel used for secondary screening was from [CDC (2013)] (Supplementary Table 3), with resistance profiles data. Bacteria are stored in lock-secured –80°C freezer and typically retrieved by obtaining single colonies on agar plates prior for subsequent liquid broth cultures. Suspensions of test bacteria were prepared from log phase of growth by diluting overnight cultures at 1:100 with fresh cation-adjusted MHB (MHB2, Millipore Sigma, United States) and incubating for additional 3–4 h. Bacteria were spun at 3,000 × g for 10 min and the pellet resuspended in test condition media (Millipore Sigma, United States) to determine bacterial turbidity using a Den-1B densitometer (Grant Instruments, United States) at 0.5 McFarland (unit of bacterial density) corresponding to […].
(§3) To examine antibacterial activity, we used minor modifications of a standard growth inhibition assay endorsed by the Clinical and Laboratory Standards Institute (CLSI), as previously described ([Deslouches et al., 2013]). Bacteria were incubated with each of the indicated peptides in MHB2. The bacterial cells were kept in an incubator for 18 h at 37°C, which is linked to a robotic system that feeds a plate reader every hour with one of 8 × 96-well plates. This set-up allows the collection of growth kinetic data at A 570 (absorbance at 570 nm) to examine growth inhibition in real time (BioTek Instruments, United States). […] The assays are typically repeated a second time. If the MIC is different, a third experimental trial is performed to confirm the MIC. To assess bactericidal properties of the peptide, the assay was modified by using 15% fetal bovine serum (FBS, for a more physiologically relevant test condition) mixed with 25% MHB2 and 60% PBS. Bacterial cells (colony forming unit/mL or CFU/mL) were enumerated after incubating treated bacteria for 3 h and plating serially diluted samples on broth agar medium at 37°C overnight. Minimum bactericidal concentration (MBC) was determined as the peptide concentration at which complete bacterial killing was observed. […] Data were analyzed using GraphPad Prism software.

[4] = tested on: K. pneumoniae; assay: microbe, parasite or virus in culture; assay type: cell-based, Klebsiella pneumoniae; settings: Klebsiella pneumoniae, 18 h, MHB2, 18 h, 37°C
Procedure: as §2, §3

[5] = tested on: P. aeruginosa; assay: microbe, parasite or virus in culture; assay type: cell-based, Pseudomonas aeruginosa; settings: Pseudomonas aeruginosa, MHB2, 18 h, 37°C
Procedure: as §2, §3

[6] = tested on: P. aeruginosa strain PA239; assay: Bactericidal assay (MBC) in FBS-containing medium FMP; assay type: cell-based; settings: within 3h of incubation
Procedure: Bacteria were incubated with each of the indicated peptides in MHB2. […] To assess bactericidal properties of the peptide, the assay was modified by using 15% fetal bovine serum (FBS, for a more physiologically relevant test condition) mixed with 25% MHB2 and 60% PBS. […] Data were analyzed using GraphPad Prism software.

[7] = tested on: MDR strain PA239; assay: Propidium iodide incorporation by flow cytometry; assay type: cell-based, Pseudomonas aeruginosa; settings: 2 μM, treated for 3 h
Excerpt: To examine whether the selected peptides kill their bacterial target mainly by membrane permeabilization, we used PI incorporation by the MDR strain PA239 (5 × 10^8 CFU/mL) quantitated by flow cytometry (Novocyte, United States) or visualized by video imaging using the digital microscope EVOS M7000 (Thermo Fisher Scientific, United States) in bright field or red fluorescence channel. In the flow cytometry experiments ([Di et al., 2020]), bacterial cells were either untreated or treated with different peptide E35 concentrations in MHB2 for 1 h at 37°C. We washed the bacteria-peptide mixture with PBS using an Eppendorf centrifuge at top speed for 7 min and incubated with PI in the dark for 15 min at room temperature. Tobramycin was used as a negative control with a 3-h long incubation. For video imaging, the broth medium was reduced to 20% in PBS (treated or untreated) to decrease the rate of cell division and PI incorporation assessed over time. Video images were recorded in real time using the 40× objective either in bright field or red fluorescence channel.

[8] = tested on: CDC AR isolates; set-up: key: S (green), susceptible; I (blue), intermediate; R (red), resistant; settings: data provided by the CDC, ref CDC, cited from earlier work
Excerpt: Supplement Table_3.XLSX, sheet "CDC AR isolates profiles" | column: G(-) strains

MIC ([1]; strain AB-A2, UPMC clinical strain, A570, confirmed by 2nd or 3rd trial): 0.5 µM (≈ 0.234 µg/mL)
MIC ([1]; strain AB-A3, UPMC): 16 µM (≈ 7.48 µg/mL)
MIC ([1]; strain AB-F8, UPMC): > 16 µM
MIC ([1]; strain AB-F9, UPMC): 2 µM (≈ 0.935 µg/mL)
MIC ([2]; strain YDC337, UPMC): > 16 µM
MIC ([2]; strain YDC748, UPMC): 16 µM (≈ 7.48 µg/mL)
MIC ([3]; strain EA518 (aerogenes)): > 16 µM
MIC ([3]; strain EA596 (aerogenes)): > 16 µM
MIC ([3]; strain EC470 (cloacae)): 4 µM (≈ 1.87 µg/mL)
MIC ([3]; strain EC560 (cloacae)): > 16 µM
MIC ([4]; strain KPA5 (colistin-resistant), UPMC): > 16 µM
MIC ([4]; strain KPB3, UPMC): > 16 µM
MIC ([5]; 18 h, strain PA01): 1 µM (≈ 0.468 µg/mL)
MIC ([5]; 18 h, strain PA97-5, UPMC): > 16 µM
MIC ([5]; 18 h, strain PA129-5, UPMC): 16 µM (≈ 7.48 µg/mL)
MIC ([5]; PA14, 18 h, strain PA14): 0.5 µM (≈ 0.234 µg/mL)
Structure (SMILES): NC[C@H]1O[C@H](O[C@H]2[C@H](O)[C@@H](O[C@H]3O[C@H](CO)[C@@H](O)[C@H](N)[C@H]3O)[C@H](N)C[C@@H]2N)[C@H](N)C[C@@H]1O [Tobramycin, reference compound]
bacterial killing [6]: did not display any substantial bacterial killing
PI incorporation [7]: 29%
Antibiotic susceptibility profile ([8]; Acinetobacter baumannii AB273, CDC AR isolate): R
Antibiotic susceptibility profile ([8]; Acinetobacter baumannii AB274, CDC AR isolate): S
Antibiotic susceptibility profile ([8]; Acinetobacter baumannii AB275, CDC AR isolate): R
Antibiotic susceptibility profile ([8]; Acinetobacter baumannii AB276, CDC AR isolate): R
Antibiotic susceptibility profile ([8]; Enterobacter cloacae E62, CDC AR isolate): R
Antibiotic susceptibility profile ([8]; Escherichia coli EC541, CDC AR isolate): R
Antibiotic susceptibility profile ([8]; Escherichia coli EC543, CDC AR isolate): R
Antibiotic susceptibility profile ([8]; Escherichia coli EC544, CDC AR isolate): R
Antibiotic susceptibility profile ([8]; Escherichia coli EC549, CDC AR isolate): R
Antibiotic susceptibility profile ([8]; Klebsiella pneumoniae KP542, CDC AR isolate): R
Antibiotic susceptibility profile ([8]; Klebsiella pneumoniae KP548, CDC AR isolate): S
Antibiotic susceptibility profile ([8]; Klebsiella pneumoniae KP550, CDC AR isolate): R
Antibiotic susceptibility profile ([8]; Klebsiella pneumoniae KP552, CDC AR isolate): R
Antibiotic susceptibility profile ([8]; Pseudomonas aeruginosa PA229, CDC AR isolate): S
Antibiotic susceptibility profile ([8]; Pseudomonas aeruginosa PA230, CDC AR isolate): R
Antibiotic susceptibility profile ([8]; Pseudomonas aeruginosa PA231, CDC AR isolate): R
Antibiotic susceptibility profile ([8]; Pseudomonas aeruginosa PA232, CDC AR isolate): R
Antibiotic susceptibility profile ([8]; Pseudomonas aeruginosa PA239, CDC AR isolate): R
